# pIC50: −log10 of the molar value.
# Assays:
# [1] = Selectivity ratio of inhibition of PKCdelta (unknown origin) to inhibition of PKC theta (unknown origin) at 1 mM ATP concentration
# [2] = Efflux ratio of apparent permeability across basolateral to apical side over apical to basolateral side in human Caco-2 cells; format: ADME, cell-based
# [3] = Selectivity ratio of inhibition of TRKA (unknown origin) to inhibition of PKC theta (unknown origin) at 1 mM ATP concentration
# [4] = Selectivity ratio of inhibition of PI3K-C2beta (unknown origin) to inhibition of PKC theta (unknown origin) at 1 mM ATP concentration
# [5] = Selectivity ratio of inhibition of HGK (unknown origin) to inhibition of PKC theta (unknown origin) at 1 mM ATP concentration
# [6] = Selectivity ratio of inhibition of MSK1 (unknown origin) to inhibition of PKC theta (unknown origin) at 1 mM ATP concentration
# [7] = Selectivity ratio of inhibition of PKCeta (unknown origin) to inhibition of PKC theta (unknown origin) at 1 mM ATP concentration
# [8] = Selectivity ratio of inhibition of AURB (unknown origin) to inhibition of PKC theta (unknown origin) at 1 mM ATP concentration
# [9] = molecular target: T1, Protein kinase C alpha type (Homo sapiens, UniProt P17252); test: Inhibition of PKC alpha (unknown origin) in presence of 1 mM ATP
# [10] = molecular target: Voltage-gated inwardly rectifying potassium channel KCNH2 (Homo sapiens, UniProt Q12809); test: Inhibition of hERG; format: toxicity
# Chain of Voltage-gated inwardly rectifying potassium channel KCNH2 (Q12809 whole entry): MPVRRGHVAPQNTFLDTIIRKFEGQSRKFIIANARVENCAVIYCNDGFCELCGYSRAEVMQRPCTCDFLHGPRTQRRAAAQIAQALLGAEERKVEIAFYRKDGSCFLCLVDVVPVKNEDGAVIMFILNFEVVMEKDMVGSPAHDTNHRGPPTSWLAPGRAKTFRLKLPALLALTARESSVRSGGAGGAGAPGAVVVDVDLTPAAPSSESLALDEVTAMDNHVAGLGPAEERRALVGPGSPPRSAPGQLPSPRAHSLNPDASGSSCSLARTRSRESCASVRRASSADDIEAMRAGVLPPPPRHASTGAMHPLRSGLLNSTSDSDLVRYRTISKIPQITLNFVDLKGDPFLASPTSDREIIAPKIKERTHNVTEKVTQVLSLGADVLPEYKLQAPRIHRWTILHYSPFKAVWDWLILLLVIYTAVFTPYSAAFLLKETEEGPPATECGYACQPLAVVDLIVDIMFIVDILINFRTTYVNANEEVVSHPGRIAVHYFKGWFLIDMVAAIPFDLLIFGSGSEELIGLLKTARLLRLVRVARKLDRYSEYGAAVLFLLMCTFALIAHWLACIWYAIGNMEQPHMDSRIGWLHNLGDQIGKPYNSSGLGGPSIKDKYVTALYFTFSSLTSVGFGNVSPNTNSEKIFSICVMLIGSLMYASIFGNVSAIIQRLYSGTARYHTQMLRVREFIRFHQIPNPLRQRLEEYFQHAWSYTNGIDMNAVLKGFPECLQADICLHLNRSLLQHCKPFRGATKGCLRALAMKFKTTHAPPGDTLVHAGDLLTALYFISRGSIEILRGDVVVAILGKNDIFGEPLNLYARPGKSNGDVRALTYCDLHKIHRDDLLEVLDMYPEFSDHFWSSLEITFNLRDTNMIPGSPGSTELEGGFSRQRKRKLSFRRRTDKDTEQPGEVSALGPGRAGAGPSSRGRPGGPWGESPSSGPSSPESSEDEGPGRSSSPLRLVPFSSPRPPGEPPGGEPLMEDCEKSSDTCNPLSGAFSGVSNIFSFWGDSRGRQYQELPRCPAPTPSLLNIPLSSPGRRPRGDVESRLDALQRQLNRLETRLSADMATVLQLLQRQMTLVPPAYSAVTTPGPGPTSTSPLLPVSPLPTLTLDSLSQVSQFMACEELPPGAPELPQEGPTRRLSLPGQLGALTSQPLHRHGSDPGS
# [11] = Selectivity ratio of inhibition of GSK3beta (unknown origin) to inhibition of PKC theta (unknown origin) at 1 mM ATP concentration
# [12] = molecular target: T2, Protein kinase C theta type (Homo sapiens, UniProt Q04759); test: Inhibition of PKC theta in TCR-stimulated human PBMC assessed as inhibition of IL-2 release; format: cell-based
# T2 sequence (Q04759 whole entry): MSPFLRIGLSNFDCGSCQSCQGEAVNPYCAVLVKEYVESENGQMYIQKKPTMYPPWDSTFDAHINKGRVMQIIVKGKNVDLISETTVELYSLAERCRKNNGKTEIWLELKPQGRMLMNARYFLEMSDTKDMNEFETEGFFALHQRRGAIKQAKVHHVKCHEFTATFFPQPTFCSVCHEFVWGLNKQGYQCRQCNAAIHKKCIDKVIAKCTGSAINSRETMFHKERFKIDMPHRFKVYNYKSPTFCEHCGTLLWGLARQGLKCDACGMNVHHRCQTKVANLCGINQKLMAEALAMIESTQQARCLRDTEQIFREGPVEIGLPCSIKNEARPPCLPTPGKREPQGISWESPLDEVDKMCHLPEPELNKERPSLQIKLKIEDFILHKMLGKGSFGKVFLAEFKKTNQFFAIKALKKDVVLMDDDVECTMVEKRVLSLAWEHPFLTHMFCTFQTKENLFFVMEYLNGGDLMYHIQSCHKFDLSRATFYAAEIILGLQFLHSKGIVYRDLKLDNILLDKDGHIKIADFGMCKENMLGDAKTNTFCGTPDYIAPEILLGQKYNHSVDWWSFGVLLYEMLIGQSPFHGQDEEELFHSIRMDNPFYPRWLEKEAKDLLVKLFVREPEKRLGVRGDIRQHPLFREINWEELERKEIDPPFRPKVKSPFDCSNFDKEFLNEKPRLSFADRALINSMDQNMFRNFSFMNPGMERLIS
# [13] = Metabolic stability in human hepatocytes assessed as intrinsic clearance measured per 10^6 cells; format: ADME, cell-based, Hepatocyte; settings: read-out: CLH
# [14] = Selectivity ratio of inhibition of FLT3 (unknown origin) to inhibition of PKC theta (unknown origin) at 1 mM ATP concentration
# [15] = Selectivity ratio of inhibition of PKACalpha (unknown origin) to inhibition of PKC theta (unknown origin) at 1 mM ATP concentration
# [16] = Selectivity ratio of inhibition of RSK3 (unknown origin) to inhibition of PKC theta (unknown origin) at 1 mM ATP concentration
# [17] = Oral bioavailability in rat; format: ADME, organism-based; settings: in vivo
# [18] = Apparent permeability of a compound in human Caco-2 cells; format: ADME, cell-based
# [19] = molecular target: T2, Protein kinase C theta type; test: Inhibition of PKC theta (unknown origin) in presence of 1 mM ATP
# [20] = Selectivity ratio of inhibition of PKCbeta1 (unknown origin) to inhibition of PKC theta (unknown origin) at 1 mM ATP concentration
# [21] = molecular target: T1, Protein kinase C alpha type; test: Inhibition of PKC alpha (unknown origin) in presence of ATP at Km
# [22] = Selectivity ratio of inhibition of CLK1 (unknown origin) to inhibition of PKC theta (unknown origin) at 1 mM ATP concentration
# [23] = molecular target: T2, Protein kinase C theta type; test: Inhibition of PKC theta (unknown origin) in presence of ATP at Km
# [24] = Solubility of the compound; format: physicochemical
# [25] = Volume of distribution at steady state in rat; format: ADME; settings: in vivo, read-out: Vdss
# [26] = Clearance in rat; format: ADME; settings: in vivo
Compound,efflux ratio [2],pIC50 [9],pIC50 [12],hepatocyte CLint [13] [µL/min/1e6 cells],Papp [18] [×10⁻⁶ cm/s],pIC50 [19],pIC50 [21],pIC50 [23],solubility [24] [µM],further results
CC1CCN(C)c2c(F)cnc3cc(F)c(nc23)-n2c(=O)[nH]c3nccc(c32)O1 (configuration not stated),1,6.03,8.04,4,18,8.92,7.25,> 9.30,–,Selectivity ratio [1]: 166; Selectivity ratio [3]: 353; Selectivity ratio [4]: 332; Selectivity ratio [5]: 36; Selectivity ratio [6]: 576; Selectivity ratio [7]: 62; Selectivity ratio [8]: > 8330; pIC50 [10]: 4.89; Selectivity ratio [11]: 187; Selectivity ratio [14]: 174; Selectivity ratio [15]: 754; Selectivity ratio [16]: 649; bioavailability [17]: 58%; Selectivity ratio [20]: 709; Selectivity ratio [22]: 858
CC1CCCOc2nc(c(-c3ccn[nH]3)cc2C(N)=O)-n2c(=O)[nH]c3nccc(c32)O1 (configuration not stated),–,–,–,–,–,–,5.09,7.33,–,–
CC1CCOc2ccnc3ccc(nc23)-n2c(=O)[nH]c3nccc(c32)O1 (configuration not stated),1,5.10,6.59,< 4,26,7.27,6.01,8.38,–,pIC50 [10]: < 4.52
CN1CCCCOc2ccnc3[nH]c(=O)n(c23)-c2ccc(C(N)=O)c1n2,–,–,–,–,2.2,–,–,–,16,–
CC1CCCOc2ccnc3[nH]c(=O)n(c23)-c2nc(c(C(N)=O)cc2-c2ncc[nH]2)O1 (configuration not stated),–,5.66,7.82,22,–,8.92,6.57,> 9.00,–,–
CC1CCCn2ccc(=O)c3ccc(nc32)-n2c(=O)[nH]c3nccc(c32)O1 (configuration not stated),23,5.18,7.28,< 4,1.3,7.82,6.06,8.92,275,–
CC1(C)NC(=O)c2ccc3nc2N1CCCCOc1ccnc2[nH]c(=O)n-3c12,–,–,–,–,0.1,–,–,–,1.5,–
CC1CCN(C)c2ccnc3ccc(nc23)-n2c(=O)[nH]c3nccc(c32)O1 (configuration not stated),2,6.03,8.19,< 4,14,9.00,7.09,> 9.30,–,pIC50 [10]: > 6.40
CC1CCCOc2ccnc3[nH]c(=O)n(c23)-c2cccc(n2)O1 (configuration not stated),0.7,5.66,7.55,32,32,8.44,6.59,> 9.30,180,–
CC1CCCOc2nc(c(-c3nnc[nH]3)cc2C(N)=O)-n2c(=O)[nH]c3nccc(c32)O1 (configuration not stated),–,–,6.80,–,–,–,5.96,8.48,–,–
CC1CCCOc2nc(c(-c3cnc[nH]3)cc2C(N)=O)-n2c(=O)[nH]c3nccc(c32)O1 (configuration not stated),–,5.17,7.05,–,–,7.82,6.04,8.85,–,–
CN1CCN(c2nc(C3=C(c4c[nH]c5ccccc45)C(=O)NC3=O)c3ccccc3n2)CC1 [SOTRASTAURIN],–,–,7.31,–,–,8.47,–,9.15,–,–
C[C@H](c1ccccc1)N1c2cc(-n3c(=O)[nH]c4ncccc43)ccc2C(=O)NC1(C)C,–,–,–,11,7.4,–,–,–,54,–
CC1(C)NC(=O)c2ccc3nc2N1CCCOc1ccnc2[nH]c(=O)n-3c12,–,–,–,–,1.3,–,–,–,1.9,–
CC1CCC(C)n2ccc(=O)c3ccc(nc32)-n2c(=O)[nH]c3nccc(c32)O1 (configuration not stated),8,6.10,7.59,< 4,4,8.80,6.85,> 9.30,123,Selectivity ratio [1]: 346; Selectivity ratio [3]: 2200; Selectivity ratio [4]: 3050; Selectivity ratio [5]: > 6250; Selectivity ratio [6]: 945; Selectivity ratio [7]: 482; Selectivity ratio [8]: 2850; Selectivity ratio [11]: 4540; Selectivity ratio [14]: 1310; Selectivity ratio [15]: > 6250; Selectivity ratio [16]: 4910; Vd [25]: 2.7 L/kg; bioavailability [17]: 20%; Selectivity ratio [20]: 262; Selectivity ratio [22]: > 6250; clearance [26]: 36 mL/min/kg
CC1CCC(C)Oc2ccnc3[nH]c(=O)n(c23)-c2nc(c(C(N)=O)cc2F)O1 (configuration not stated),7,6.21,7.92,< 4,8,9.05,7.31,> 9.30,145,bioavailability [17]: 69%
CN1CCCCOc2ccnc3[nH]c(=O)n(c23)-c2cc1ccc2Cl,–,–,–,< 1,–,–,–,–,4,–
CC1CCCOc2ccnc3[nH]c(=O)n(c23)-c2ccc3c(=O)ccn1c3n2 (configuration not stated),12,6.17,8.12,17,3.1,> 9.30,7.17,> 9.30,296,–
CC1CCC(C)n2ccc(=O)c3cc(F)c(nc32)-n2c(=O)[nH]c3nccc(c32)O1 (configuration not stated),13,6.26,7.77,< 4,2.1,> 9.30,7.31,> 9.30,271,Vd [25]: 3.2 L/kg; bioavailability [17]: 40%; clearance [26]: 41 mL/min/kg
CC1CCN2c3nc(ccc3C(=O)NC2(C)C)-n2c(=O)[nH]c3nccc(c32)O1 (configuration not stated),65,6.31,8.22,–,0.9,10.00,7.24,> 10.00,25,Selectivity ratio [1]: 677; Selectivity ratio [3]: 5180; Selectivity ratio [4]: 4640; Selectivity ratio [5]: 14500; Selectivity ratio [6]: 5160; Selectivity ratio [7]: 997; Selectivity ratio [8]: 253; Selectivity ratio [11]: 17900; Selectivity ratio [14]: 2450; Selectivity ratio [15]: 25000; Selectivity ratio [16]: 2260; bioavailability [17]: 17%; Selectivity ratio [20]: 911; Selectivity ratio [22]: 1620
O=c1ccn2c3nc(ccc13)-n1c(=O)[nH]c3nccc(c31)OCCCC2,–,–,–,6,0.2,–,–,–,0.9,–
CC1CCCOc2cccc(n2)-n2c(=O)[nH]c3nccc(c32)O1 (configuration not stated),0.6,< 5.00,6.63,6.1,31,7.21,5.72,8.30,32,–
O=c1[nH]c2nccc3c2n1-c1cccc(n1)OCCCCO3,0.9,–,–,12,15,–,< 5.00,8.04,3,–
NC(=O)c1ccc2nc1OCCCCOc1ccnc3[nH]c(=O)n-2c13,–,–,–,–,0.2,–,–,–,5.5,–
CC1(C)NC(=O)c2ccc3cc2N1CCCCOc1ccnc2[nH]c(=O)n-3c12,–,–,–,–,0.7,–,–,–,12,–
CC1CCN(C)c2ccnc3cc(F)c(nc23)-n2c(=O)[nH]c3nccc(c32)O1 (configuration not stated),–,6.72,8.72,10,–,> 9.30,7.60,> 9.30,–,pIC50 [10]: 5.62
CC1CCC(C)c2ccnc3ccc(nc23)-n2c(=O)[nH]c3nccc(c32)O1 (configuration not stated),–,6.08,7.55,19,–,8.41,7.19,> 9.30,–,–
CC1CCn2ccc(=O)c3cc(F)c(nc32)-n2c(=O)[nH]c3nccc(c32)O1 (configuration not stated),53,5.43,7.57,< 4,0.5,8.30,6.36,> 9.30,274,–
CC1CCCOc2ccnc3[nH]c(=O)n(c23)-c2ccc3nccc1c3n2 (configuration not stated),0.8,6.26,8.38,36,31,> 9.30,7.23,> 9.30,–,pIC50 [10]: 4.62
CC1(C)NC(=O)c2ccc3cc2N1CCCOc1ccnc2[nH]c(=O)n-3c12,–,–,–,–,0.3,–,–,–,9,–

# From ChEMBL document CHEMBL5625263, “Discovery of a novel series of selective macrocyclic PKCTheta inhibitors” (Bioorg Med Chem Lett, 2024)
